Measurements reported in US20240400553A1, “AMINE BASED MATRIPTASE 2 INHIBITORS AND USES THEREOF” (Disc Medicine, Inc., priority 2023, published 2024).
pKi: −log10 of the molar value. Like-named read-outs stand apart in the source and are kept apart here.

Target: T1, Human Recombinant Matriptase 2 (Homo sapiens, UniProt Q8IU80)
T1 construct: made in house
T1 sequence (Q8IU80 1-811): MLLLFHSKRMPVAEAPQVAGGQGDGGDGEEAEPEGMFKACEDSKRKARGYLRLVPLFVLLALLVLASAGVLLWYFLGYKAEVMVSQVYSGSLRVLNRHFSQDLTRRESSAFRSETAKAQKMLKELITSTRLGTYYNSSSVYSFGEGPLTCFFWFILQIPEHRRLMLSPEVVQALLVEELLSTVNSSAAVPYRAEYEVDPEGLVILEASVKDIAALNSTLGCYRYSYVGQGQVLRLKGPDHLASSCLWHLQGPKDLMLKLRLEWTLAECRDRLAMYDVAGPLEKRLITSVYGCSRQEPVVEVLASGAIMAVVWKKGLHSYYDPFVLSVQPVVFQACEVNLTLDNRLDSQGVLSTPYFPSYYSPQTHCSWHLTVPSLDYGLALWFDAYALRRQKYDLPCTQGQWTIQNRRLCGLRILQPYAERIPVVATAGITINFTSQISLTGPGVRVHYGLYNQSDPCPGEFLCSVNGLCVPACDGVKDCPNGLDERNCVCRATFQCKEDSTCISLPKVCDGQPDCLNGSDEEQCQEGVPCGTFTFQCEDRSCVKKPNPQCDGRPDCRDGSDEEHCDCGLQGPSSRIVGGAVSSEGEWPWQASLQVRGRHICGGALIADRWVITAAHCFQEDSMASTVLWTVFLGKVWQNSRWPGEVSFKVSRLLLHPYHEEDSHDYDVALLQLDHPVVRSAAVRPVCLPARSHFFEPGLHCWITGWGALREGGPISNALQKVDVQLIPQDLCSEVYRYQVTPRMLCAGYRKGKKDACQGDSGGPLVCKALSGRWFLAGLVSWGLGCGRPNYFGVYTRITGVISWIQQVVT
Assay: Matriptase 2 inhibition, fluorescence based assay (Method I)
Format: biochemical
Conditions: Table A, read-out: Mat-2 Ki
In short: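 Fluorogenic readout (Ex 360/Em 480 nm) taken 60 min after adding 62 μM Boc-Gln-Ala-Arg-AMC, following 30-min enzyme–compound preincubation at 25 °C. Conditions: 3.5 nM in-house enzyme, pH 7.5 Tris/NaCl/gelatin buffer, 1% DMSO; percent inhibition versus concentration fitted by variable-slope sigmoidal regression.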

Structure (SMILES)	pKi (Ki of Matriptase-2)	pKi (Ki of Matriptase-2 given as class symbols)
NCc1ccc2cc(C(=O)OCCC3CCOCC3)n(Cc3cc(NS(=O)(=O)Cc4ccsc4)cc4ccccc34)c2n1 [Compound 179, 2-(oxan-4-yl)ethyl 6-(aminomethyl)-1-({3-[(thiophen-3-yl)methane-sulfonamido]naphthalen-1-yl}methyl)-1H-pyr-rolo[2,3-b]pyridine-2-carboxylate]	6.30 to 7.00	–
Cc1cccc(C)c1CS(=O)(=O)Nc1cc(Cn2c(C(=O)NCCC3CCN(C)CC3)cc3ccc(CN)nc32)c2ccccc2c1 [Compound 183, 6-(aminomethyl)-1-({3-[(2,6-dimethylphenyl)-methanesulfonamido]-naphthalen-1-yl}meth-yl)-N-[2-(1-methylpiper-idin-4-yl)ethyl]-1H-pyr-rolo[2,3-b]pyridine-2-carboxamide]	≥ 7.00	–
Cc1cccc(C)c1CS(=O)(=O)Nc1cc(Cn2c(C(=O)NCC3CCN(C)CC3)cc3ccc(CN)nc32)c2ccccc2c1 [Compound 184, 6-(aminomethyl)-1-({3-[(2,6-dimethylphenyl)-methanesulfonamido]-naphthalen-1-yl}meth-yl)-N-[(1-methylpiper-idin-4-yl)methyl]-1H-pyrrolo[2,3-b]pyridine-2-carboxamide]	≥ 7.00	–
Cc1cccc(C)c1CS(=O)(=O)Nc1cc(Cn2c(C(=O)OCc3cncn3C)cc3ccc(CN)nc32)c2ccccc2c1 [Compound 187, (1-methyl-1H-imidazol-5-yl)methyl 6-(amino-methyl)-1-({3-[(2,6-dimethylphenyl)methane-sulfonamido]naphthalen-1-yl}methyl)-1H-pyr-rolo[2,3-b]pyridine-2-carboxylate]	≥ 7.00	–
Cc1cccc(C)c1CS(=O)(=O)Nc1cc(Cn2c(C(=O)OCC3CCN(C)CC3)cc3ccc(CN)nc32)c2ccccc2c1 [Compound 188, (1-methylpiperidin-4-yl)methyl 6-(aminometh-yl)-1-({3-[(2,6-dimethyl-phenyl)methanesulfon-amido]naphthalen-1-yl}-methyl)-1H-pyrrolo[2,3-b]pyridine-2-carboxylate]	≥ 7.00	–
Cc1cccc(C)c1CS(=O)(=O)Nc1cc(Cn2c(C(=O)OC[C@H]3COCCN3)cc3ccc(CN)nc32)c2ccccc2c1 [Compound 189, [(3R)-morpholin-3-yl]-methyl 6-(aminomethyl)-1-({3-[(2,6-dimethyl-phenyl)methanesulfon-amido]naphthalen-1-yl}-methyl)-1H-pyrrolo[2,3-b]pyridine-2-carboxylate]	≥ 7.00	–
COCCN1CCC(COC(=O)c2cc3ccc(CN)nc3n2Cc2cc(NS(=O)(=O)Cc3c(C)cccc3C)cc3ccccc23)CC1 [Compound 192, [1-(2-methoxyethyl)-piperidin-4-yl]methyl 6-(aminomethyl)-1-({3-[(2,6-dimethylphenyl)-methanesulfonamido]-naphthalen-1-yl}meth-yl)-1H-pyrrolo[2,3-b]-pyridine-2-carboxylate]	≥ 7.00	–
Cc1cccc(C)c1CS(=O)(=O)Nc1cc(Cn2c(C(=O)O)cc3ccc(CN)nc32)c2ccccc2c1 [Compound 195, 6-(aminomethyl)-1-({3-[(2,6-dimethylphenyl)-methanesulfonamido]-naphthalen-1-yl}methyl)-1H-pyrrolo[2,3-b]pyr-idine-2-carboxylic acid]	≥ 7.00	–
CC(=O)N(C)CCOC(=O)c1cc2ccc(CN)nc2n1Cc1cc(NS(=O)(=O)Cc2c(C)cccc2C)cc2ccccc12 [Compound 197, 2-(N-methylacetamido)-ethyl 6-(aminomethyl)-1-({3-[(2,6-dimethylphen-yl)methanesulfonamido]-naphthalen-1-yl}methyl)-1H-pyrrolo[2,3-b]pyr-idine-2-carboxylate]	≥ 7.00	–

The next lines start with the values.

pKi (Ki of Matriptase-2)	pKi (Ki of Matriptase-2 given as class symbols)	Structure (SMILES)
≥ 7.00	–	CNCCOC(=O)c1cc2ccc(CN)nc2n1Cc1cc(NS(=O)(=O)Cc2ccsc2)cc2ccccc12 [Compound 175, 2-(methylamino)ethyl 6-(aminomethyl)-1-({3-[(thiophen-3-yl)methane-sulfonamido]naphthalen-1-yl}methyl)-1H-pyr-rolo[2,3-b]pyridine-2-carboxylate]
≥ 7.00	–	NCc1ccc2cc(C(=O)OCC3CCOCC3)n(Cc3cc(NS(=O)(=O)Cc4ccsc4)cc4ccccc34)c2n1 [Compound 176, (oxan-4-yl)methyl 6-(aminomethyl)-1-({3-[(thiophen-3-yl)methane-sulfonamido]naphthalen-1-yl}methyl)-1H-pyr-rolo[2,3-b]pyridine-2-carboxylate]
≥ 7.00	–	NCc1ccc2cc(C(=O)OCCN3CCCC3)n(Cc3cc(NS(=O)(=O)Cc4ccsc4)cc4ccccc34)c2n1 [Compound 177, 2-(pyrrolidin-1-yl)ethyl 6-(aminomethyl)-1-({3-[(thiophen-3-yl)methane-sulfonamido]naphthalen-1-yl}methyl)-1H-pyr-rolo[2,3-b]pyridine-2-carboxylate]
6.30 to 7.00	–	Cc1oc(=O)oc1COC(=O)c1cc2ccc(CN)nc2n1Cc1cc(NS(=O)(=O)Cc2ccsc2)cc2ccccc12 [Compound 178, (5-methyl-2-oxo-2H-1,3-dioxol-4-yl)methyl 6-(aminomethyl)-1-({3-[(thiophen-3-yl)methane-sulfonamido]naphthalen-1-yl}methyl)-1H-pyr-rolo[2,3-b]pyridine-2-carboxylate]
6.30 to 7.00	–	COc1ccccc1CS(=O)(=O)Nc1cc(Cn2c(C(=O)O)cc3ccc(CN)nc32)c2ccccc2c1 [Compound 180, 6-(aminomethyl)-1-({3-[(2-methoxyphenyl)-methanesulfonamido]-naphthalen-1-yl}meth-yl)-1H-pyrrolo[2,3-b]-pyridine-2-carboxylic acid]
6.30 to 7.00	–	CN(Cc1nccn1C)C(=O)c1cc2ccc(CN)nc2n1Cc1cc(NS(=O)(=O)Cc2ccsc2)cc2ccccc12 [Compound 181, 6-(aminomethyl)-N-methyl-N-[(1-methyl-1H-imidazol-2-yl)meth-yl]-1-({3-{(thiophen-3-yl)methanesulfonamido]-naphthalen-1-yl}methyl)-1H-pyrrolo[2,3-b]pyr-idine-2-carboxamide]
≥ 7.00	–	Cc1cccc(C)c1CS(=O)(=O)Nc1cc(Cn2c(C(=O)OC[C@H]3CNCCO3)cc3ccc(CN)nc32)c2ccccc2c1 [Compound 182, [(2R)-morpholin-2-yl]-methyl 6-(aminometh-yl)-1-({3-[(2,6-dimeth-ylphenyl)methanesulfon-amido]naphthalen-1-yl}-methyl)-1H-pyrrolo[2,3-b]pyridine-2-carboxylate]
≥ 7.00	–	Cc1cccc(C)c1CS(=O)(=O)Nc1cc(Cn2c(C(=O)OCCC3CCN(C)CC3)cc3ccc(CN)nc32)c2ccccc2c1 [Compound 185, 2-(1-methylpiperidin-4-yl)ethyl 6-(aminometh-yl)-1-({3-[(2,6-dimethyl-phenyl)methanesulfon-amido]naphthalen-1-yl}-methyl)-1H-pyrrolo[2,3-b]pyridine-2-carboxylate]
≥ 7.00	–	Cc1cccc(C)c1CS(=O)(=O)Nc1cc(Cn2c(C(=O)OCCN3CCN(C)CC3)cc3ccc(CN)nc32)c2ccccc2c1 [Compound 186]
≥ 7.00	–	Cc1cccc(C)c1CS(=O)(=O)Nc1cc(Cn2c(C(=O)OCCCN3CCOCC3)cc3ccc(CN)nc32)c2ccccc2c1 [Compound 190, 3-(morpholin-4-yl)prop-yl 6-(aminomethyl)-1-({3-[(2,6-dimethylphen-yl)methanesulfonamido]-naphthalen-1-yl}meth-yl)-1H-pyrrolo[2,3-b]-pyridine-2-carboxylate]
≥ 7.00	–	Cc1cccc(C)c1CS(=O)(=O)Nc1cc(Cn2c(C(=O)OCc3nccn3C)cc3ccc(CN)nc32)c2ccccc2c1 [Compound 191, (1-methyl-1H-imidazol-2-yl)methyl 6-(amino-methyl)-1-({3-[(2,6-dimethylphenyl)meth-anesulfonamido]naph-thalen-1-yl}methyl)-1H-pyrrolo[2,3-b]pyridine-2-carboxylate]
≥ 7.00	–	Cc1cccc(C)c1CS(=O)(=O)Nc1cc(Cn2c(C(=O)NCCN3CCOCC3)cc3ccc(CN)nc32)c2ccccc2c1 [Compound 196, 6-(aminomethyl)-1-({3-[(2,6-dimethylphenyl)-methanesulfonamido]-naphthalen-1-yl}meth-yl)-N-[2-(morpholin-4-yl)ethyl]-1H-pyrrolo-[2,3-b]pyridine-2-car-boxamide]
–	≥ 7.00	Cc1cccc(C)c1CS(=O)(=O)Nc1cc(Cn2c(C(=O)OCC3CCN(C=O)CC3)cc3ccc(CN)nc32)c2ccccc2c1 [Compound 198, (1-formylpiperidin-4-yl)-methyl 6-(aminomethyl)-1-({3-[(2,6-dimethyl-phenyl)methanesulfon-amido]naphthalen-1-yl}-methyl)-1H-pyrrolo[2,3-b]pyridine-2-carboxylate]
